Patent US20240238293A1, “COMBINED PHARMACEUTICAL PREPARATION FOR TREATING A TERMINAL NON-SMALL CELL LUNG CANCER PATIENT WITH BRAIN METASTASIS” (DELTA-FLY PHARMA, INC., priority 2020, published 2024)
“Also recorded” adds a separate entry of the source.

Columns and labels:
[1] = Phase II clinical trial of concurrent low-dose Ubenimex and low-dose Afatinib: adverse effects; format: in vivo, human patients; details: within the combination (FIG. 2)
Method: To patients with non-small cell lung cancer having a mutation in the epidermal growth factor receptor (EGFR) gene, 10 mg/day of Ubenimex in a single dose unit (free form) and 20 mg/day of Afatinib (Giotrif®, dimaleate) in a single dose unit were administered in concurrently once a day until no antitumor effects would be exerted. The therapeutic effects and reduction of adverse effects were then inspected. […]

[2] = Afatinib 40 mg/day alone; terminal (stage III to IV) NSCLC patients; 229 patients, phase III; cited from earlier work

| SMILES | adverse effects of Afatinib at about 20 mg/day, such as diarrhea or rashes ([1]; about 20 mg/day in a single dose unit) | adverse effects, such as diarrhea and rashes [2] | adverse effects of Ubenimex at about 10 mg/day ([1]; about 10 mg/day in a single dose unit) |
| --- | --- | --- | --- |
| CN(C)CC=CC(=O)Nc1cc2c(Nc3ccc(F)c(Cl)c3)ncnc2cc1O[C@H]1CCOC1 [Afatinib, N-[4-[(3-chloro-4-fluorophenyl)amino]-7-[[(3S)-tetrahydro-3-furanyl]oxy]-6-quinazolinyl]-4-(dimethylamino)-2-butenamide] | substantially no adverse effects | likely to appear; also recorded: likely to be caused | – |
| CC(C)C[C@H](NC(=O)[C@@H](O)[C@H](N)Cc1ccccc1)C(=O)O [Ubenimex, (2S)-2-[(2S,3R)-3-amino-2-hydroxy-4-phenylbutanoylamino]-4-methylpentanoic acid] | – | – | substantially no adverse effects |
